Data on two compounds can be found in US9642909B2, “Pharmaceutical compositions comprising attenuated Plasmodium sporozoites and glycolipid adjuvants” (Sanaria Inc., priority 2011, dated 2017).

Data set [1] relates to IFN-γ-secreting CS-specific CD8+ cells. Conditions: irradiated sporozoites SC with α-GalCer by the same route vs without; cited from earlier work.
For data set [2] the following is noted: pre-loaded autologous PBMCs or direct injection; cited from earlier work.
The target in another data set is CD1d (Homo sapiens, UniProt P15813). The following applies: cited from earlier work.
The subject of data set [3] is iNKT cells. The following applies: mouse; cited from earlier work.
The test system of data set [4] is iNKT cells. Conditions: human; cited from earlier work.
Data set [5] deals with pathogenic P. yoelii sporozoites. Nature of the data set: Protection of BALB/c mice against pathogenic P. yoelii sporozoite challenge after a single IV dose of irr PySPZ with or without 7DW8-5 IP. In kind it is in vivo. The protocol:
To determine if the adjuvant 7DW8-5 could decrease the number of doses of irr PySPZ required to confer protection, a suboptimal dosing regimen was performed. irr PySPZ (17NXL) were dissected from the salivary glands of A. stephensi mosquitoes and injected intravenously (IV) into BALB/c mice as a single dose of either of 5×10^4 or 1×10^4 sporozoites. Two μg of 7DW8-5 was concurrently administered intraperitoneally (IP) in some mice. Fourteen days later, mice were challenged with 100 non-irradiated pathogenic P. yoelii sporozoites. Protection was assessed by Giemsa-stained blood smears and was defined as the complete absence of parasitemia 7 and 14 days post infection.
A second experiment was performed to confirm the results shown in Example 1. […] Again, adjuvant in the absence of antigen had no effect.
Using the single dose methodology of Example 1 with radiation attenuated Py sporozoites that have been purified using the purification procedure disclosed in Sim et al. (U.S. Pat. No. 8,043,625, incorporated in its entirety herein by reference) a third experiment was performed. Using 1×10^4 purified sporozoites administered IV in a single dose, 3 out of 10 mice were protected, whereas 7 of 10 mice were protected when the adjuvant was concurrently administered IP.
To determine the optimal single dose of attenuated sporozoites (in conjunction with 7DW8-5 concurrently administered distally IP) that confers protection by the IV route, mice were injected IV with 0, 2500, 5000, 10,000 and 20,000 sporozoites. Two μg of 7DW8-5 were injected IP.

The test system is the same in data set [6]. Conditions: versus α-GalCer, cited from earlier work.
The test system is the same in data set [7]. In words: Protection of BALB/c mice after intradermal immunization with irr PySPZ mixed with 7DW8-5 at base of tail. In kind it is in vivo. The protocol: To determine whether protective immunogenicity of attenuated sporozoites is maintained or enhanced in the presence of 7DW8-5, mice were immunized by intradermal (ID) injection alone, with 2 doses at 2-week intervals of 15,000, 10,000, 5,000 and 2,500 sporozoites and unlike Examples 1-5, 1 μg 7DW8-5 was mixed as a composition with sporozoites and the composition of adjuvant and sporozoites was delivered ID at the base of the tail. With 2 doses of 15,000 sporozoites in the presence of adjuvant 100% of the mice were protected, and at lower doses of sporozoites 60-80% of the mice were protected. In the absence of adjuvant, only 40% of mice receiving 2 doses of 15,000 sporozoites were protected.
Protection conferred by a single dose of a composition of 1 μg 7DW8-5 adjuvant and varying amounts of sporozoites delivered ID was measured. For this 15,000 and 30,000 sporozoites were administered to mice ID as described above. These doses were partially protective at 60% and 40% respectively.
The next step in development was to assess purified irr PySPZ BALB/c/mice were immunized with irr PySPZ purified as described, in the presence or absence of 7DW8-5 adjuvant.

Where [8] appears, read: summary of Examples 1-3, one dose irr PySPZ IV, 7DW8-5 IP where given.

Structures are written as SMILES. Values joined by “and” are separate entries in the source; they are usually repeats but may differ in a detail not shown here. Equal values may be shown once. Read-outs that look alike come from different tables or passages of the source.

Chain of CD1d (P15813 20-335, species assumed): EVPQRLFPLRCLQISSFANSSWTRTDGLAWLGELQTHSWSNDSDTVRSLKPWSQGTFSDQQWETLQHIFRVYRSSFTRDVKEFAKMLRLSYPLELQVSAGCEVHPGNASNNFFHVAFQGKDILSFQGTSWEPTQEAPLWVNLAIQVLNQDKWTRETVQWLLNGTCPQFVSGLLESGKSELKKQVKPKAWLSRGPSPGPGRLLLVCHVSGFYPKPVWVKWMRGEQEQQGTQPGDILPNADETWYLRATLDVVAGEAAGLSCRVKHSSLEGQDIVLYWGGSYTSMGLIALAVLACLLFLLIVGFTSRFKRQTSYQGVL
Chain of CD1d (P61769 21-119 partner, species assumed): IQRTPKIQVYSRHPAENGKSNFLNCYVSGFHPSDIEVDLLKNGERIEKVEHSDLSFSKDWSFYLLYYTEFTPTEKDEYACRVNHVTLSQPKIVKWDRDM

Take `CCCCCCCCCCCCCCCCCCCCCCCCCC(=O)N[C@@H](CO[C@H]1O[C@H](CO)[C@H](O)[C@H](O)[C@H]1O)[C@H](O)[C@H](O)CCCCCCCCCCCCCC` [α-GalCer, α-galactosylceramide]: the “increase in number of IFN-γ-secreting CS-specific CD8+ cells” value in data set [1] is “seven fold”. In addition, the safety and tolerability result in data set [2] was “safe and well tolerated”. For the same compound, the “affinity for CD1d” value on CD1d is listed as “high affinity”. Besides, the “activation of iNKT cells” value with iNKT cells [3] and with iNKT cells [4] was “potent activator” throughout.
For `CCCCCCCCCCCCCC[C@@H](O)[C@@H](O)[C@H](COC1OC(CO)C(O)C(O)C1O)NC(=O)CCCCCCCCCCc1ccc(F)cc1` (stereo partly shown) [7DW8-5], the “# protected/# challenged” value was “no protection and 0/5” in data set [5] (Example 1, 2 μg 7DW8-5 IP alone, no sporozoites); “no effect and 0/5” in data set [5] (Example 2, 2 μg 7DW8-5 IP alone, no sporozoites); 0/5 in data set [5] (Example 3, 2 μg 7DW8-5 IP alone, no sporozoites); 0/5 in data set [5] (Example 5, 0 sporozoites, 2 μg 7DW8-5 IP); 0/5 in data set [7] (Example 6, 0 sporozoites, 1 μg 7DW8-5 per mouse ID). In addition, the “First Challenge # protected/# re-challenged” value in data set [5] (Example 4 table, first challenge, 2 μg 7DW8-5 IP alone) is 0/5. This compound also yielded a percent protected in data set [5] (setting [8]) of 0%. Moreover, in data set [5] (setting [8]), the protected/challenged is on record as 0/15. For the same compound, in data set [6] (co-administered IM with adenovirus vaccine), the malaria-specific humoral response result was “equally if not slightly stronger than α-GalCer”. Further, the “malaria-specific CD8+ T cell response” value in data set [6] (co-administered IM with suboptimal dose of adenovirus vaccine) is “significantly more than α-GalCer”. In addition, the “adjuvant effect in enhancing protective efficacy” value in data set [6] (single immunizing dose of adenovirus recombinant vaccine) is “significantly stronger adjuvant effect than α-GalCer”. Besides, in data set [7] (Example 8, adjuvant alone), the protection entry is “No protection”. Moreover, the “ability to elicit cytokine production from iNKT cells” value in the data set on iNKT cells [3] and with iNKT cells [4] was “superior ability” in each case.
